The subject of series [1] is neutrophils. As to the kind of experiment: phagokinetic activity of neutrophils on gold sol-coated plates. The series is classed as cell-based, human. On the procedure: The phagokinetic activity of neutrophils on gold sol-coated plates can be determined by a technique essentially as taught in Albrecht-Buehler (Cell, 11, 395, 1977). […] Thus, the inhibitory effect of TMS on phagokinetic activity is not dependent on cytotoxicity.
.sctn. The area swept by neutrophils was determined in photographs of the
monolayers. The regions cleared by neutrophil movement were then cut out
Phagokinetic activity was observed by tracing tracks of neutrophils moving on a glass substrate covered with gold colloid particles. The technique was described originally by Albrecht-Buehler, supra, using 3T3 and other cell lines. Briefly, 22×22 mm square glass coverslips (Corning Glass Works, Corning, N.Y.) were dipped for 1 min into 1% BSA prepared in Milli Q water. The BSA solution was prepared fresh each day and passed through 0.20 μm Nalgene filters (Nalgene Labware Division, Rochester, N.Y.).
The coverslip then was drained by touching a Kim-wipe paper towel to its edge, dipped into 100% ethanol and rapidly and completely dried in a 85° C. hot airstream. The coverslip was placed in a 3.5 cm Falcon plastic dish. Then 5.4 ml of AuCl4 H and 18 ml of 36.5 mM Na2 CO3 were added to 33 ml of distilled water and heated. Immediately after reaching the boiling point, 5.4 ml of 0.1% formaldehyde in water were added quickly and mixed. The suspension of gold particles forming a brownish color was distributed immediately onto the dish (2 ml each) and the coverslip was incubated for 2 hr at 37° C.
Particle-coated coverslips were washed in PBS, then twice in RPMI 1640 and finally put in another 3.5 cm Falcon plastic dish containing 2 ml of RPMI 1640 with glutamate and pyruvate. The coverslips were stored at 4° C. and used within 24 hr after preparation.
The freshly-purified neutrophils (1×10^4 cells/plate) were added onto the colloid-coated coverslip. TMS and other effectors were added into the medium on the plate. As a control, the solvent of the effectors (50% ethanol) was added at an equal amount. At that concentration (0.1%), ethanol brought no significant effect on neutrophil activities. To observe cell recovery from exposure to the effectors, neutrophils (2×10^5 cells/ml) were pre-incubated at 37° C. with 12 μM of TMS, SPN and DMS, then distributed to the dish dropwise, diluting the effectors 200-fold. Incubation was conducted under 5% CO2 at 37° C. for 2 hr and terminated by adding 200 μl of 10% formaldehyde. Microscopic examination of each plate was performed with a Nikon microscope, connected to a Polaroid camera for recordings. Phagokinetic activity was measured by tracing the track of a neutrophil. The track was recorded with photographs, then the area was measured by cutting and weighing there swept area.

For series [2], the system named is neutrophils. As to the kind of experiment: neutrophil transmigration through HUVEC monolayer. It counts as cell-based, human. As to conditions: for neutrophil transmigration (number of cells transmigrated): Table II, control 100, 90 min. Here is the method: (§1) A characteristic of neutrophils is the ability to adhere to activiated EC's and to migrate through the EC monolayer into the vascular or extravascular matrix. The effect of TMS on neutrophil interactions with EC's and their subsequent trans-endothelial migration thereof can be monitored in vitro using human umbilical endothelial cells (HUVEC's) (Luscinskas et al., J. Imm., 146, 1617, 1991). Neutrophils are added to a HUVEC monolayer and neutrophil-HUVEC interactions are assessed microscopically following fixation, embedding and staining of monolayer sections.
Cross-sections (2 μm) of the collagen bed with HUVEC's and neutrophils
were observed using a Zeiss light microscope with KPL W10 ahd Ph2 Neoflua
16 lenses. The number of cells transmigrated were counted for each view.
(§2) HUVEC's and culture media were purchased from Cell Systems (Kirkland, Wash.). The cells were maintained and cultured as described in Luscinskas et al., supra, with some modifications. Briefly, HUVEC's were maintained in 10 ml tissue culture flasks on a collagen type I bed obtained from rat tail (Upstate Biotechnology Inc, Lake Placid, N.Y.) with CS-complete medium, CS-growth factor and CS-AF-1 (Cell Systems). Cells became confluent within 2 to 4 days when incubated in 5% CO2 at 37° C.
For the transmigration assay, thick gels were formed in 24-well tissue culture plates. Preparation of the gel solution was carried out at 4° C. Eight parts of collagen solution (Vitrogen 100, from bovine tendon which contained less than 5 ng/ml endotoxin; Celtrix Labs, Palo Alto, Calif.), one part of 10×RPMI and one part of alkaline solution (2.2 g NaHCO3 in 100 ml of 0.05N NaOH and 200 mM HEPES) were mixed gently and distributed at 0.7 ml/well. The solution was left for 4 hr at 37° C. to eliminate air bubbles, then allowed to gel in a 37° C. oven for 3 hr. The wells were washed with 1.0 ml of CS-complete medium with attachment factors at least 4 times and every 3 to 6 hr during further incubation at 37° C. in 5% CO2.
HUVEC's at a passage level of less than 3 were detached from 10 ml tissue culture flasks with 3 ml of Trypsin-EDTA at 37° C. for 30 to 60 sec. Immediately, 3 ml of M199 with 20% heat-inactivated FCS was added. Cells were collected by centrifugation. The pellet was resuspended in 10 ml of CS-complete medium with attachment factors. Homogeneous cell suspensions were plated at 0.7 ml to each well and the plates were incubated for 3 hr at 37° C. The supernatant, which contains dead cells, was aspirated carefully and fresh complete medium with attachment factors was added.
The HUVEC monolayer in 24-well tissue culture plates were washed with M199 without FCS, then incubated with 1 ml/well of IL-1β (Boehringer Mannheim Biochemical Products, Indianapolis, Ind.) dissolved in M199 with 1% heat-inactivated FCS (HIFCS) at 10 U/ml. The plates were incubated at 37° C., 5% CO2 for 4 hr then washed gently with 1 ml of M199. The purified neutrophil suspension (1.5×10^6 cells/ml) in M199 containing 1% HIFCS was pre-incubated with TMS, or other effectors, for 10 min at 37° C. After aspirating the media in the well, 0.5 ml of the neutrophil suspension were added onto the HUVEC monolayer. The tissue culture plate was incubated for 90 min at 37° C.
The culture was terminated by gently aspirating the cell suspension, adding 1 ml of 10% formaldehyde in PBS and stored at 4° C. overnight for fixation. The edge of the collagen bed was cut with a small spatula along the wall 2 hr before removal from the well. The collagen bed, which has HUVEC's on the surface and transmigrated neutrophils within was embedded in paraffin, sectioned and followed by staining with hematoxylin-eosin for microscopic examination.

Series [3] can be described thus: neutrophil viability (trypan blue exclusion). It counts as cell-based, human. As to conditions: neutrophils, Table III, control 94. Here is the method: (§3) The viability was evaluated by trypan blue exclusion assay. The cell
(§4) incubated at 37° C. for 10 min with effectors. The aliquot was
(§5) mixed with an equal amount of trypan blue solution and immediately counte
(§6) under a Nikon light microscope.

Series [4] has as its system GMP-140. As to the kind of experiment: GMP-140 expression on platelets (flow cytometry, mAb AC1.2). It counts as cell-based, human. On the procedure: FIGS. 11A and 11B depict results of representative experiments assessing the percentage of platelets capable of binding an anti-GMP-140 antibody following exposure to various agents. The percentage binding activity was determined in a flow cytometer. SPN is sphingosine; H-7 is 1-(5-isoquinolinylsulfonyl)-2-methylpiperazine; Cal is calphostin-C; TMS is trimethylsphingosine; and DMS is dimethylsphingosine.
GMP-140 expression was determined by (i) flow cytometry with mAb AC1.2, which is directed to GMP-140 and obtained from Dr. Furie (Tufts Univ. Sch. Med., Boston, Mass.) and (ii) adhesion of HL60 cells on platelet-coated solid phase.
A suspension of platelets (1×10^8 /ml) in Tyrode's buffer was preincubated with inhibitor at pH 7.2, 37° C., for 5 minutes, then supplemented with activator, either thrombin (final concentration 1 U/ml) or phorbol 12-myristate 13-acetate (PMA (final concentration 10^-7 M), and the mixture was incubated at 37° C. for 10 minutes. Platelets were fixed with an equal volume of 2% (w/v) paraformaldehyde in PBS and washed 2 times with PBS containing 1% (w/v) BSA.
The paraformaldehyde-fixed platelets were incubated with 50 μl of mAb AC1.2 (2.5 μg/ml) at room temperature for 30 minutes. Platelets were washed 2 times with PBS containing 1% (w/v) BSA, supplemented with 50 μl of fluorescein isothiocyanate-labeled goat anti-mouse Ig (purchased from Tago Co., Burlingame, Calif.), incubated at room temperature for 30 minutes and again washed 2 times with PBS containing 1% (w/v) BSA. As a negative control, paraformaldehyde-fixed platelets were incubated with mouse IgG instead of mAb AC1.2 and treated as described above.
The platelets were analyzed in an Epics flow cytometer (Coulter Corp.) with suitable gating. To calculate the inhibitory effect of various reagents, the mean fluorescence intensity of resting platelets (obtained on incubation of platelets without activator) was subtracted from the value for the activated platelet sample.

Series [5] relates to protein kinase-C. As to conditions: in vitro, Tamaoki & Nakano; cited from earlier work.
Series [6] can be described thus: water solubility. It counts as physicochemical. The note with it: particularly at physiologic pH.
Excerpt: For comparison purposes those same test cells also are exposed to sphingosine and N,N-dimethylsphingosine.
The test system of series [7] is HUVEC's. As to the kind of experiment: morphologic damage to endothelial cells (HUVEC's). The series is classed as cell-based, human. The note with it: staurosporine 2 μM, calphostin C 5 μM. On the procedure:
as §1, §2
The HUVEC monolayer in 24-well tissue culture plates were washed with M199 without FCS, then incubated with 1 ml/well of IL-1β (Boehringer Mannheim Biochemical Products, Indianapolis, Ind.) dissolved in M199 with 1% heat-inactivated FCS (HIFCS) at 10 U/ml. The plates were incubated at 37° C., 5% CO2 for 4 hr then washed gently with 1 ml of M199. […]

Series [8] deals with phosphoinositide turnover. Description: fMLP-induced phosphoinositide turnover in neutrophils (32P incorporation). It counts as cell-based, human. As to conditions: Table VI, 1 μM fMLP alone, control 100. On the procedure:
Amount of ^32 P in PIP and PIP2 was measured using TLC separation. The spots on TLC plates were scraped off and the radioactivity therein was measured with a Beckman scintillation counter. Each spot was compared as to intensity with the identical spot of the control sample.
After incubation, the cells were washed and resuspended in the same buffer at a concentration of 1×10^7 cells/ml. Each suspension (1 ml) then was pretreated with TMS, SPN or DMS, or equal volume of 50% ethanol, for 10 min at 37° C. Then keeping the same temperature, fMLP was added to a final concentration of 1.0 μM. Two minutes later, the reaction was terminated by adding 3.75 ml of chloroform/methanol (1:2) to each cell suspension, followed by sonication for 15 min. An additional 1.25 ml of chloroform, 1.25 ml of water and 50 μl of acetone were added and the total mixture was mixed and left overnight.
Following centrifugation of the mixture, the phospholipids were extracted by Folch's partition method, taking the lower phase from the cell lysate. […] The TLC plate was developed with control phospholipids, in a solvent comprising chloroform/methanol/4M NaOH at a ratio of 45:35:10 and containing 0.1% CDTA (trans-1,2-diaminocyclohexane-N,N,N',N'-tetraacetic acid) for 65 min at 37° C. The bands were identified by staining the control phospholipids with primuline and visualization under ultraviolet light. Autoradiography was performed with Kodak diagnostic film GBX-2 (Rochester N.Y.) by exposing overnight at 37° C.

For series [9], the system named is neutrophils. Description: neutrophil viability (trypan blue exclusion). The series is classed as cell-based, human. As to conditions: Table V, 37° C., 10 min, in % (unit assumed). On the procedure:
as §3, §4, §5, §6

[10] abbreviates: Homo sapiens, Neutrophil, 2 h, read-out: Area Swept.
Setting [11] is: Homo sapiens, Neutrophil, 1.5 h, read-out: Number of Cells/View.

These results are taken from patent US5466716A, “Liposomal trimethylsphingosine” (The Biomembrane Institute, priority 1994, dated 1995).

Usually viability stands for a per cent measure of how many cells are alive, often set against a control. Lower therefore signals a greater loss of cells. For the compound `CC1CNCCN1S(=O)(=O)c1cccc2cnccc12` (stereo not shown) [H-7, 1-(5-isoquinolinylsulfonyl)-2-methylpiperazine], the activity at 200 µM in [1] (setting [10]) is 27 ± 6%; in series [2] (setting [11]) it was 38 ± 12%. The viability at 10 min, 200 µM in series [3] (200 μM) worked out at 79 ± 7.1%. For the same compound, the “inhibition of GMP-140 expression” value in series [4] (PMA-induced, FIG. 11B) is reported as “Neither SPN nor H-7 showed inhibition”; in series [4] (thrombin-induced, FIG. 11A), “no inhibition”. Also, in [5], the “concentration reported to inhibit protein kinase-C” value is 15 µM.

`CCCCCCCCCCCCC/C=C/[C@@H](O)[C@H](CO)NC` [N-monomethylsphingosine]: the water solubility entry in [6] is “less water soluble”.

As for `CN[C@@H]1C[C@H]2O[C@@](C)([C@@H]1OC)n1c3ccccc3c3c4c(c5c6ccccc6n2c5c31)C(=O)NC4` [Staurosporine], in series [1] (setting [10]), the activity at 0.2 µM worked out at 13 ± 12%. Further, the activity at 2 µM in series [2] (setting [11]) was 52 ± 25%. The viability at 10 min, 2 µM in series [3] (2 μM) amounted to 83 ± 3.6%. In addition, the “morphologic damage to EC's” value in series [7] was “striking morphologic damage to EC's”.

`CSCC[C@H](NC=O)C(=O)N[C@@H](CC(C)C)C(=O)N[C@@H](Cc1ccccc1)C(=O)O` [fMLP, formyl-methionyl-leucyl-phenylalanine, reference compound] came in with a PIP labeling in series [8] of 182 ± 39.

With Ceramide, the “Area Swept” value in [1] (Table I, 4.5 μM, control 100, 120 min) worked out at 109 ± 25%. Besides, the entries for the “neutrophil transmigration (number of cells transmigrated)” value in [2] (4 μM), in series [2] (15 μM) and in series [2] (45 μM) were 92 ± 24, 87 ± 27 and 83 ± 16, respectively. Moreover, the results for the Viability of neutrophils in series [9] (5 μM), in [9] (15 μM) and in series [9] (45 μM) were 98 ± 2, 96 ± 1 and 91 ± 3, respectively.
